Values of other authors as cited in article PMC3694611 (Journal of natural products, 2012).

Columns and labels:
[1] = tested on: Plasmodium falciparum; conditions: in words; ref [1a]
[2] = in words; ref [ii]

| Substance | activity against the malarial parasite Plasmodium falciparum [1] | anticancer potency [2] |
| --- | --- | --- |
| Gallinamide A | moderately active | – |
| dolastatin-15 | – | exceedingly potent |
